Data taken from patent publication US9127027B2, “Epoxyeicosatrienoic acid analogs and methods of making and using the same” (The Medical College of Wisconsin, Inc., priority 2011, dated 2015).
Read-outs that look alike come from different tables or passages of the source.

Tests used:
bovine coronary artery = test: Vasorelaxant activity in bovine coronary artery rings precontracted with U-46619; assay type: cell-based; settings: for Vascular Relax. % (10 μM) / activation at 10 µM: 100% relaxation = basal pre-U-46619 tension; for EC50: bovine coronary artery, read-out: Vascular Relax. EC50; for activation at 10 µM: read-out: Vascular Relax. % (10 μM)
Experimental: Vasorelaxant activity was measured in bovine coronary artery. Bovine hearts were obtained and the left anterior descending coronary artery was dissected and cleaned of connective tissue. Vessels of 1 mm diameter were cut into rings of 3 mm width as previously described (3, 27, 39). […] The vessels were suspended from a pair of stainless steel hooks in a 6-ml water-jacketed organ chamber. […] One hook was anchored to a steel rod and the other hook to a force transducer (model FT-03C; Grass Instruments, West Warwick, R.I.). Tension of the vessel was measured by an ETH-400 bridge amplifier, and the data were acquired with a MacLab 8e analog-to-digital converter and MacLab software version 3.5.6 (AD Instruments, Milford, Mass.) and stored on a Macintosh computer for subsequent data analysis.
Basal tension was set at the length-tension maximum of 3.5 g and equilibrated for 1.5 h. KCl (40 mM) was added to the chamber until reproducible maximal contractions were maintained. […] Cumulative additions of compounds were added to the chamber. Between concentration-response curves, the chambers were rinsed with fresh Krebs buffer, 40 mM KCl was administered to determine the maximum contraction, and the vessels were rinsed. Consecutive concentration-response curves were performed with 14,15-EET followed by a concentration-response curve to a compound. The experiment was always repeated with the order of the agonists reversed. […] The relaxation was plotted versus compound concentration and the EC50 determined utilizing statistical software.

Human recombinant sEH = Human recombinant sEH (Homo sapiens (Human), UniProt P34913); test: Soluble epoxide hydrolase inhibition (PHOME fluorescent substrate); assay type: biochemical; settings: Table 1 head prints μM (Table 2 prints nM for same numbers); read-out: sEHi IC50
Chain of Human recombinant sEH (P34913 whole entry): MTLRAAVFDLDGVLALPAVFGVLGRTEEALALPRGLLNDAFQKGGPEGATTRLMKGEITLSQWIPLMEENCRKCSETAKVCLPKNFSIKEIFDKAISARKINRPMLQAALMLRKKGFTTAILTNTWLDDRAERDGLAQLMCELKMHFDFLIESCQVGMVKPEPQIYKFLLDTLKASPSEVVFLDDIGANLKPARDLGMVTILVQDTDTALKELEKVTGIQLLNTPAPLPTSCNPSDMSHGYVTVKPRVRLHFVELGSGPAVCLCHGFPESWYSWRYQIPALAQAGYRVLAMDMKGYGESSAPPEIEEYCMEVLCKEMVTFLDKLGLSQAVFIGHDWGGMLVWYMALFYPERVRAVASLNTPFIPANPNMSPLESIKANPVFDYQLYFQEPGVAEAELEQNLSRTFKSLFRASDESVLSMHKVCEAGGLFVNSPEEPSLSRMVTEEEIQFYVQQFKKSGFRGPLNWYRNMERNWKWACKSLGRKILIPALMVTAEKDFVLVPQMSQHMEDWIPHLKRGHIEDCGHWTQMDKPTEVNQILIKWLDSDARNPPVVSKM
Experimental: Compounds were tested for their ability to inhibit recombinant soluble epoxide hydrolase (sEH) protein. The assay utilizes (3-Phhenyl-oxiranyl)-acetic acid cyano-(6-methoxy-naphthalen-2-yl)-methyl ester (PHOME), a sensitive substrate for sEH that can be used to monitor the activity of both human and murine enzymes. […] Human recombinant sEH was incubated with substrate and compounds ranging in concentration from 0.1 to 1000 nM.

SMILES | EC50 (bovine coronary artery) [nM] | IC50 (Human recombinant sEH) [µM] | EC50 (bovine coronary artery; Bos taurus) [nM] | Vascular Relax. % (10 μM) (bovine coronary artery) [%] | activation at 10 µM (bovine coronary artery; Bos taurus) [%]
CCCCCCC(=O)N(CCCC/C=C\CCCCCCC(=O)OCCOCCOCCO)C(C)C [Compound 1, 2-(2-(2-Hydroxyethoxy)ethoxy)ethyl 13-(N-isopropylheptanamido)tridec-8(Z)-enoate] | 2900 | > 0.5 |  | 86 | 
CCCCCNC(=O)NCCCC/C=C\CCCCCCC(=O)OCCOCCOCCO [Compound 2, 2-(2-(2-Hydroxyethoxy)ethoxy)ethyl 13-(3-n-pentylureido)tridec-8(Z)-enoate] | 5100 |  |  | 72 | 
CCCCNC(=O)C(=O)NCCCC/C=C\CCCCCCC(=O)OCCOCCOCCO [Compound 3, 2-(2-(2-Hydroxyethoxy)ethoxy)ethyl13-(2-(n-butylamino)-2 oxoacetamido)tridec-8(Z)-enoate] | 1500 | > 0.5 |  | 104 | 
CCCCCCC(=O)N(CCCC/C=C\CCCCCCC(=O)NCC(=O)O)C(C)C [Compound 5, 2-(13-(N-Isopropylheptanamido)tridec-8(Z)-enamido)acetic acid] |  |  | 1900 | 95 | 
CCCCCN(C)C(=O)N(C)CCCC/C=C\CCCCCCC(=O)NCC(=O)O [Compound 6, 2-(13-(1,3-Dimethyl-3-n-pentylureido)tridec-8(Z)-enamido)acetic acid] |  | > 0.5 | 2750 | 92 | 
CCCCCNC(=O)NCCCC/C=C\CCCCCCC(=O)NS(=O)(=O)c1ccccc1 [Compound 8, 13-(3-n-Pentylureido)-N-(phenylsulfonyl)tridec-8(Z)-enamide] |  | 0.041 | 6000 | 73 | 
CCCCCNC(=O)NCCCC/C=C\CCCCCCP(=O)([O-])[O-].[Na+].[Na+] [Compound 10] |  | > 0.5 | > 10000 | 71 | 
CCCCCNC(=O)NCCCC/C=C\CCCCCNS(=O)(=O)c1ccccc1 [Compound 12, N-(11-(3-n-Pentylureido)undec-6(Z)-enyl)benzenesulfonamide] |  | 0.032 | 3400 |  | 75
CCCCCNC(=O)NCCCC/C=C\CCCCCSc1ccccc1O [Compound 13, 1-(11-(2-Hydroxyphenylthio)undec-5(Z)-enyl)-3-n-pentylurea] |  | 0.006 | > 10000 |  | 48
CCCCCNC(=O)NCCCC/C=C\CCCCCS(=O)(=O)c1ccccc1O [Compound 14, 1-(11-(2-Hydroxyphenylsulfonyl)undec-5(Z)-enyl)-3-n-pentylurea] |  |  | 5000 |  | 76
CCCCCCC(=O)N(CCCC/C=C\CCCCCCc1nnn[nH]1)C(C)C [Compound 19] |  |  | 1000 | 74 | 
CCCCCNC(=O)NCCCCCOc1cccc2sc(NC(C)=O)nc12 [Compound 31, N-(4-(5-(3-n-Pentylureido)pentyloxy)benzo[d]thiazol-2-yl)acetamide] |  | > 0.5 | 900 | 73 | 
CCCCNC(=O)C(=O)NCCCCCOc1cccc2sc(NC(C)=O)nc12 [Compound 32] |  |  | 2400 | 96 | 

More lines, main results first:

EC50 (bovine coronary artery) [nM] | IC50 (Human recombinant sEH) [µM] | EC50 (bovine coronary artery; Bos taurus) [nM] | SMILES | Vascular Relax. % (10 μM) (bovine coronary artery) [%] | activation at 10 µM (bovine coronary artery; Bos taurus) [%]
 | 0.237 | 630 | CCCCCNC(=O)NCCCC/C=C\CCCCOCC(=O)O [Compound 4, 2-(10-(3-n-Pentylureido)dec-5(Z)-enyloxy)acetic acid] | 49 | 
 | 0.071 | 6700 | CCCCCNC(=O)NCCCC/C=C\CCCCCCC(=O)NS(C)(=O)=O [Compound 9, N-(Methylsulfonyl)-13-(3-n-pentylureido)tridec-8(Z)-enamide] | 61 | 
 | 0.057 | 7600 | CCCCCNC(=O)NCCCC/C=C\CCCCCCS(=O)(=O)[O-].[Na+] [Compound 11] | 63 | 
 | 0.022 | 3700 | CCCCCNC(=O)NCCCC/C=C\CCCCCSc1nnn[nH]1 [Compound 15, 1-(11-(1H-Tetrazol-5-ylthio)undec-5(Z)-enyl)-3-pentylurea] |  | 85
 | 0.032 | 9800 | CCCCCNC(=O)NCCCC/C=C\CCCCCSc1ncn[nH]1 [Compound 16] |  | 53
 | 0.096 | 3500 | CCCCCNC(=O)NCCCC/C=C\CCCCC[S+]([O-])c1ncn[nH]1 (stereo not shown) [Compound 17] |  | 92
 | 0.023 | 3100 | CCCCCNC(=O)NCCCC/C=C\CCCCCS(=O)(=O)c1ncn[nH]1 [Compound 18] |  | 92
 | > 0.5 | 1700 | CCCCNC(=O)C(=O)NCCCC/C=C\CCCCCCc1nnn[nH]1 [Compound 21] | 96 | 
 | 0.032 | 1100 | CCCCCNC(=O)NCCCC/C=C\CCCCCCCc1nnn[nH]1 [Compound 22, 1-(13-(1H-Tetrazol-5-yl)tridec-5(Z)-enyl)-3-n-pentylurea] | 110 | 
 | 0.065 | 1100 | CCCCCNC(=O)NCCCC/C=C\CCCCCCc1noc(=O)[nH]1 [Compound 23] | 89 | 
 | 0.057 | > 10000 | CCCCCNC(=O)NCCCC/C=C\CCCCCC1SC(=O)NC1=O (stereo not shown) [Compound 24, 1-(11-(2,4-Dioxothiazolidin-5-yl)undec-5(Z)-enyl)-3-n-pentylurea] |  | 47
 | 0.01 | 340 | CCCCCNC(=O)NCCCC/C=C\CCCCCCC1=NOS(=O)N1 (stereo not shown) [Compound 25] | 109 | 
 | > 0.5 | 360 | CCCCNC(=O)C(=O)NCCCC/C=C\CCCCCCC1=NOS(=O)N1 (stereo not shown) [Compound 27] |  | 116
 | 0.031 | 3300 | CCCCCNC(=O)NCCCC/C=C\CCCCCCc1noc(=S)[nH]1 [Compound 28] | 93 | 
 | 0.231 | 2400 | CCCCCNC(=O)NCCCC/C=C\CCCCCCc1nsc(=O)[nH]1 [Compound 29] | 54 | 
